Measured values: EP0597838B1, “VACCINE COMPOSITIONS” (NORTH AMERICAN VACCINE, INC., priority 1990, dated 1991)

Legend:
[1] = tested on: hepatitis B surface antigen; test: Antibody response to hepatitis B surface antigen with octadecyl amino acid immunoadjuvants, radioimmunoassay of sera; format: in vivo, BALB/c mice; conditions: 50 ng HBsAg i.m. day 1, boost 35 ng day 21, 100 µg octadecyl amino acid
Procedure: BALB/c mice were immunized with 50 ng of hepatitis B surface antigen in the presence of adjuvant for the non-control mice and in the absence of adjuvant for the control mice. The hepatitis B surface antigen was obtained from 3T3 cells transfected with the gene for the surface antigen. 100 µg of octadecyl amino acid was complexed with the polypeptide as described in Example 2. This mixture, in a total volume of 0.1 ml, was injected on day 1 using an intramuscular route, and the mice were bled on days 7, 14, 21, 28, 35, 42 and 61. The mice were boosted with 35 ng of the polypeptide on day 21.
The antibody concentration in the sera was determined by radioimmunoassay. The antibody concentration was estimated by comparison with a standard curve obtained using a monoclonal antibody.

HIV-1 polypeptide = test: Antibody response to HIV-1 polypeptide in baboons with octadecyl tyrosine hydrochloride, radioimmunoassay; format: in vivo
Procedure: 3) Experiments in baboons Two baboons were immunized with 300 µg of chemically synthesized polypeptide, corresponding to the amino acid sequence of residues 503-535 of HIV-1, coupled to Keyhole Limpet Hemocyanin. 500 µg of octadecyl tyrosine hydrochloride was complexed with the polypeptide, as described in Example 2. This mixture in a total volume of 1.0 ml was injected on day 1 and again on day 35. The animals were bled 3 days before the first immunization, and on days 14, 32 and 49. The same experiment was undertaken with another two baboons, but with polypeptide corresponding to the amino acid sequence 526-535 of HIV-1. The antibody concentration in the sera was indirectly measured by radioimmunoassay. Tiltration was undertaken by incubation of samples on plates coated with peptide-albumin conjugate, and reaction with iodine-125 labelled rabbit anti-monkey immunoglobulin.

Compound: CCCCCCCCCCCCCCCCCCOC(=O)CN
- Anti-HBsAg antibody concentration ([1]; day 7): 47 ng/mL
- Anti-HBsAg antibody concentration ([1]; day 14): 38 ng/mL
- Anti-HBsAg antibody concentration ([1]; day 21): 51 ng/mL
- Anti-HBsAg antibody concentration ([1]; day 28): 147 ng/mL
- Anti-HBsAg antibody concentration ([1]; day 35): 748 ng/mL
- Anti-HBsAg antibody concentration ([1]; day 61): 301 ng/mL

Compound: CCCCCCCCCCCCCCCCCCOC(=O)C(N)CC(C)C (centres unmarked)
- Anti-HBsAg antibody concentration ([1]; day 7): 48 ng/mL
- Anti-HBsAg antibody concentration ([1]; day 14): 42 ng/mL
- Anti-HBsAg antibody concentration ([1]; day 21): 37 ng/mL
- Anti-HBsAg antibody concentration ([1]; day 28): 160 ng/mL
- Anti-HBsAg antibody concentration ([1]; day 35): 590 ng/mL
- Anti-HBsAg antibody concentration ([1]; day 61): 496 ng/mL

Compound: CCCCCCCCCCCCCCCCCCOC(=O)C1CCCN1 (centres unmarked)
- Anti-HBsAg antibody concentration ([1]; day 7): 49 ng/mL
- Anti-HBsAg antibody concentration ([1]; day 14): 35 ng/mL
- Anti-HBsAg antibody concentration ([1]; day 21): 41 ng/mL
- Anti-HBsAg antibody concentration ([1]; day 28): 72 ng/mL
- Anti-HBsAg antibody concentration ([1]; day 35): 409 ng/mL
- Anti-HBsAg antibody concentration ([1]; day 61): 168 ng/mL

Compound: CCCCCCCCCCCCCCCCCCOC(=O)CCN
- Anti-HBsAg antibody concentration ([1]; day 7): 31 ng/mL
- Anti-HBsAg antibody concentration ([1]; day 14): 45 ng/mL
- Anti-HBsAg antibody concentration ([1]; day 21): 44 ng/mL
- Anti-HBsAg antibody concentration ([1]; day 28): 120 ng/mL
- Anti-HBsAg antibody concentration ([1]; day 35): 337 ng/mL
- Anti-HBsAg antibody concentration ([1]; day 61): 373 ng/mL

Compound: CCCCCCCCCCCCCCCCCCOC(=O)C(N)CCCCN (centres unmarked) [Octadecyl Lysine]
- Anti-HBsAg antibody concentration ([1]; day 7): 33 ng/mL
- Anti-HBsAg antibody concentration ([1]; day 14): 55 ng/mL
- Anti-HBsAg antibody concentration ([1]; day 21): 39 ng/mL
- Anti-HBsAg antibody concentration ([1]; day 28): 51 ng/mL
- Anti-HBsAg antibody concentration ([1]; day 35): 67 ng/mL
- Anti-HBsAg antibody concentration ([1]; day 61): 53 ng/mL

Compound: H-Val-Ala-Pro-Thr-Lys-Ala-Lys-Arg-Arg-Val-Val-Gln-Arg-Glu-Lys-Arg-Ala-Val-Gly-Ile-Gly-Ala-Leu-Phe-Leu-Gly-Phe-Leu-Gly-Ala-Ala-Gly-Ser- (VAPTKAKRRVVQREKRAVGIGALFLGFLGAAGS; printed: Val-Ala-Pro-Thr-Lys-Ala-Lys-Arg-Arg-Val-Val-Gln-Arg-Glu-Lys-Arg-Ala-Val-Gly-Ile-Gly-Ala-Leu-Phe-Leu-Gly-Phe-Leu-Gly-Ala-Ala-Gly-Ser-) [503-535]
- Antibody response to HIV-1 polypeptide (HIV-1 polypeptide; ANIMAL 1, day 14, 300 µg polypeptide-KLH + 500 µg octadecyl tyrosine hydrochloride on day 1 and 35, background subtracted): 2004 CPM
- Antibody response to HIV-1 polypeptide (HIV-1 polypeptide; ANIMAL 1, day 32, 300 µg polypeptide-KLH + 500 µg octadecyl tyrosine hydrochloride on day 1 and 35, background subtracted): 2185 CPM
- Antibody response to HIV-1 polypeptide (HIV-1 polypeptide; ANIMAL 1, day 49, 300 µg polypeptide-KLH + 500 µg octadecyl tyrosine hydrochloride on day 1 and 35, background subtracted): 5948 CPM
- Antibody response to HIV-1 polypeptide (HIV-1 polypeptide; ANIMAL 1, day -3 (bled before the first immunization), after subtraction of background on bovine serum albumin coated plates): 1020 CPM
- Antibody response to HIV-1 polypeptide (HIV-1 polypeptide; ANIMAL 2, day 14, 300 µg polypeptide-KLH + 500 µg octadecyl tyrosine hydrochloride on day 1 and 35, background subtracted): 2160 CPM
- Antibody response to HIV-1 polypeptide (HIV-1 polypeptide; ANIMAL 2, day 32, 300 µg polypeptide-KLH + 500 µg octadecyl tyrosine hydrochloride on day 1 and 35, background subtracted): 2121 CPM
- Antibody response to HIV-1 polypeptide (HIV-1 polypeptide; ANIMAL 2, day 49, 300 µg polypeptide-KLH + 500 µg octadecyl tyrosine hydrochloride on day 1 and 35, background subtracted): 4470 CPM
- Antibody response to HIV-1 polypeptide (HIV-1 polypeptide; ANIMAL 2, day -3 (bled before the first immunization), after subtraction of background on bovine serum albumin coated plates): 1530 CPM

Compound: Octadecyl Forphenicine
- Anti-HBsAg antibody concentration ([1]; day 7): 100 ng/mL
- Anti-HBsAg antibody concentration ([1]; day 14): 112 ng/mL
- Anti-HBsAg antibody concentration ([1]; day 21): 116 ng/mL
- Anti-HBsAg antibody concentration ([1]; day 28): 908 ng/mL
- Anti-HBsAg antibody concentration ([1]; day 35): 592 ng/mL
- Anti-HBsAg antibody concentration ([1]; day 61): 355 ng/mL

Compound: Octadecyl Forphenicinol
- Anti-HBsAg antibody concentration ([1]; day 7): 31 ng/mL
- Anti-HBsAg antibody concentration ([1]; day 14): 40 ng/mL
- Anti-HBsAg antibody concentration ([1]; day 21): 26 ng/mL
- Anti-HBsAg antibody concentration ([1]; day 28): 65 ng/mL
- Anti-HBsAg antibody concentration ([1]; day 35): 306 ng/mL
- Anti-HBsAg antibody concentration ([1]; day 61): 98 ng/mL
